Measured values from US12629374B2, “Antimalarial agents” (Merck Sharp & Dohme LLC, priority 2020, dated 2026).
Where two headings read alike, the source gives them in different places.

Test system: ring stage parasites
Assay: Parasite growth potency assay, 72 hours, LDH readout
Type: cell-based
Details: parasite growth measured by LDH assay after 72 hours at 37° C., 0.7% rings, 2% haematocrit, read-out: EC50
Procedure, shortened: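 Parasite growth was quantified by LDH assay after a −80 °C freeze-thaw. Before that, compound was incubated for 72 h at 37 °C under humidified gas with ring-stage cultures adjusted to 0.7% parasitemia and 2% haematocrit in serum- and albumax-supplemented RPMI-Hepes.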

| Structure (SMILES) | EC50 (72 h) | EC50 (trifluoroacetate) |
| --- | --- | --- |
| CCC1(CC)CC(=O)N([C@H](CCN2CCOCC2)c2cccc(C(=O)N[C@H]3CC(C)(C)Oc4ccccc43)c2)C(=N)N1 [Example 135, [1-[1-[3-[[(4S)-2,2-dimethylchroman-4-yl]carbamoyl]phenyl]-3-morpholin-4-ium-4-yl-propyl]-4,4-diethyl-6-oxo-hexahydropyrimidin-2-ylidene]ammonium; 2,2,2-trifluoroacetate] | 1 nM | – |
| CCC1(CC)CC(=O)N([C@H](CCN2CCOCC2)c2cccc(C(=O)N[C@H]3C[C@H](C(F)(F)F)Oc4ccccc43)c2)C(=N)N1 [Example 136, [4,4-diethyl-1-[3-morpholin-4-ium-4-yl-1-[3-[[(2R,4S)-2-(trifluoromethyl)chroman-4-yl]carbamoyl]phenyl]propyl]-6-oxo-hexahydropyrimidin-2-ylidene]ammonium; 2,2,2-trifluoroacetate] | 1.3 nM | – |
| CCC1(CC)CC(=O)N([C@H](CCOC)c2cccc(C(=O)N[C@@H]3c4ccccc4OC(C)(C)C3(C)O)c2)C(=N)N1 (stereo partly drawn) [Example 203, 3-[(1R)-1-(4,4-diethyl-2-imino-6-oxo-hexahydropyrimidin-1-yl)-3-methoxy-propyl]-N-(3-hydroxy-2,2,3-trimethyl-chroman-4-yl)benzamide] | 0.3 nM | – |
| CCC1(C)CC(=O)N([C@H](CCOC)c2cccc(C(=O)N[C@@H]3c4ccccc4C4(CC4)[C@H]3O)c2)C(=N)N1 (stereo partly drawn) [Example 168, [4-ethyl-1-[(1R)-1-[3-[(2′-hydroxyspiro[cyclopropane-1,3′-indane]-1′-yl)carbamoyl]phenyl]-3-methoxy-propyl]-4-methyl-6-oxo-hexahydropyrimidin-2-ylidene]ammonium; 2,2,2-trifluoroacetate] | 1.4 nM | – |
| CCC1(CC)CC(=O)N([C@H](Cc2ccccc2)c2cccc(C(=O)N[C@H]3CCOc4ccccc43)c2)C(=N)N1 [Example 40, [1-[1-[3-[[(4S)-chroman-4-yl]carbamoyl]phenyl]-2-phenyl-ethyl]-4,4-diethyl-6-oxo-hexahydropyrimidin-2-ylidene]ammonium; 2,2,2-trifluoroacetate] | 9.7 nM | – |
| CCC1(CC)CC(=O)N([C@H](CC(C)C)c2cccc(C(=O)N[C@H]3CCOc4ccccc43)c2)C(=N)N1 [Example 14A, [1-[1-[3-[[(4S)-chroman-4-yl]carbamoyl]phenyl]-3-methyl-butyl]-4,4-diethyl-6-oxo-hexahydropyrimidin-2-ylidene]ammonium; 2,2,2-trifluoroacetate] | 0.2 nM | – |
| CCC1(CC)CC(=O)N(C(CCOC)c2ccc(C(F)(F)F)c(C(=O)N[C@@H]3c4ccccc4OC[C@]3(C)O)c2)C(=N)N1 (stereo partly drawn) [Example 245, 5-[1-(4,4-diethyl-2-imino-6-oxo-hexahydropyrimidin-1-yl)-3-methoxy-propyl]-N-[(3R,4R)-3-hydroxy-3-methyl-chroman-4-yl]-2-(trifluoromethyl)benzamide] | 1.6 nM | – |
| CCC1(CC)CC(=O)N(Cc2cccc(C(=O)N[C@@H]3c4ccccc4OCC3(C)O)c2)C(=N)N1 (stereo in doubt) [Example 131A, 3-[(4,4-diethyl-2-imino-6-oxo-hexahydropyrimidin-1-yl)methyl]-N-(3-hydroxy-3-methyl-chroman-4-yl)benzamide] | 6.6 nM | – |
| C#CCC[C@H](c1cccc(C(=O)NC2CC3(CCC3)Oc3ccccc32)c1)N1C(=N)NC(CC)(CC)CC1=O (stereo in doubt) [Example 211B, [4,4-diethyl-6-oxo-1-[(1R)-1-[3-[[(4R)-spiro[chromane-2,1′-cyclobutane]-4-yl]carbamoyl]phenyl]pent-4-ynyl]hexahydropyrimidin-2-ylidene]ammonium; 2,2,2-trifluoroacetate] | – | 0.5 nM |
| CCC[C@H](c1cccc(C(=O)N[C@@H]2c3ccccc3OCC2O)c1)N1C(=N)NC(CC)(CC)CC1=O (stereo partly drawn) [Example 127D, 3-[(1R)-1-(4,4-diethyl-2-imino-6-oxo-hexahydropyrimidin-1-yl)butyl]-N-(3-hydroxychroman-4-yl)benzamide] | 1.2 nM | – |
| CCC[C@H](c1cccc(C(=O)N[C@@H]2c3ccccc3OC[C@@]2(C)O)c1)N1C(=N)NC(CC)(CC)CC1=O [Example 163A, 3-[(1R)-1-(4,4-diethyl-2-imino-6-oxo-hexahydropyrimidin-1-yl)butyl]-N-[(3S,4R)-3-hydroxy-3-methyl-chroman-4-yl]benzamide] | 0.3 nM | – |
| CC#CCCC(c1cccc(C(=O)NC2CC(C)(C)Oc3ccccc32)c1)N1C(=N)NC(CC)(CC)CC1=O (stereo not shown) [Example 83C, [1-[1-[3-[(2,2-dimethylchroman-4-yl)carbamoyl]phenyl]hex-4-ynyl]-4,4-diethyl-6-oxo-hexahydropyrimidin-2-ylidene]ammonium; 2,2,2-trifluoroacetate] | – | 50.2 nM |
| CC#CCC[C@H](c1cccc(C(=O)N[C@H]2CCOc3ccccc32)c1)N1C(=N)NC(CC)(CC)CC1=O [Example 74, [1-[1-[3-[[(4S)-chroman-4-yl]carbamoyl]phenyl]hex-4-ynyl]-4,4-diethyl-6-oxo-hexahydropyrimidin-2-ylidene]ammonium; 2,2,2-trifluoroacetate] | 0.9 nM | – |
| CCC[C@H](c1cccc(C(=O)N[C@@H]2CC3(CCC3)Oc3ccccc32)c1)N1C(=N)NC(CC)(CC)CC1=O (stereo in doubt) [Example 212A, [4,4-diethyl-6-oxo-1-[(1R)-1-[3-[[(4S)-spiro[chromane-2,1′-cyclobutane]-4-yl]carbamoyl]phenyl]butyl]hexahydropyrimidin-2-ylidene]ammonium; 2,2,2-trifluoroacetate] | 8 nM | – |
| CCC1(CC)CC(=O)N(Cc2cccc(C(=O)N[C@H]3CCOc4ccc(Br)cc43)c2)C(=N)N1 (stereo in doubt) [Example 219, [1-[[3-[(6-bromochroman-4-yl)carbamoyl]phenyl]methyl]-4,4-diethyl-6-oxo-hexahydropyrimidin-2-ylidene]ammonium; 2,2,2-trifluoroacetate] | 6.6 nM | – |
| CCC[C@H](c1cc(C(=O)N[C@H]2CCOc3ccccc32)ccn1)N1C(=N)NC(CC)(CC)CC1=O [Example 49A, [1-[1-[4-[[(4S)-chroman-4-yl]carbamoyl]pyridin-1-ium-2-yl]butyl]-4,4-diethyl-6-oxo-hexahydropyrimidin-2-ylidene]ammonium; 2,2,2-trifluoroacetate] | 0.7 nM | – |
| CCC1(CC)CC(=O)N([C@H](CCOC)c2cccc(C(=O)N[C@H]3CCOc4ccccc43)c2)C(=N)N1 [Example 56, [1-[1-[3-[[(4S)-chroman-4-yl]carbamoyl]phenyl]-3-methoxy-propyl]-4,4-diethyl-6-oxo-hexahydropyrimidin-2-ylidene]ammonium; 2,2,2-trifluoroacetate] | 0.5 nM | – |
| CCC1(CC)CC(=O)N(C(COC)c2cccc(C(=O)N[C@@H]3c4ccccc4C[C@H]3O)c2)C(=N)N1 (stereo partly drawn) [Example 223, 3-[1-(4,4-diethyl-2-imino-6-oxo-hexahydropyrimidin-1-yl)-2-methoxy-ethyl]-N-[(1R,2R)-2-hydroxyindan-1-yl]benzamide] | 2.3 nM | – |
| COCC[C@H](c1cncc(C(=O)N[C@H]2CC(C)(C)Oc3ccccc32)c1)N1C(=N)N[C@](C)(C(C)C)CC1=O [Example 104, [(4S)-1-[1-[5-[[(4S)-2,2-dimethylchroman-4-yl]carbamoyl]pyridin-1-ium-3-yl]-3-methoxy-propyl]-4-isopropyl-4-methyl-6-oxo-hexahydropyrimidin-2-ylidene]ammonium; 2,2,2-trifluoroacetate] | 0.9 nM | – |
